From US6348477B1, “Anti-herpesvirus compounds and methods for identifying, making and using same” (Boehringer Ingelheim(Canada) Ltd., priority 1995, dated 2002)

What was measured:
[1] = system: HCMV (strain AD169); assay: Inhibition of HCMV replication, ELISA assay (Hs-68 cells, p28); format: cell-based, human cytomegalovirus; settings: Human betaherpesvirus 5, AD169, Hs68; Group 1 Table 1; read-out: ELISA CMV EC50
Experimental: (§1) C) Inhibition of Human Cytomegalovirus (HCMV) replication
(§2) The effect of compounds on the replication of HCMV has been measured by using an ELISA-based assay (ELISA) and a plaque reduction assay (PRA).
(§3) Hs-68 cells (ATCC # CRL 1635) were seeded in 96 well microtiter plates at 10,000 cells/well in 100 μL of DMEM medium (Gibco Canada Inc.) supplemented with 10% fetal bovine serum (FBS, Gibco Canada Inc.). The plates were incubated for 3 days at 37° to allow the cells to reach 80-90% confluency prior to the assay.
The medium was removed from wells by aspiration. The cells then were infected at a multiplicity of infection (MOI) of 0.01 PFU/cell with 50 μL of HCMV (strain AD169, ATCC VR-538) in DMEM medium supplemented with 5% heat inactivated FBS (assay medium). The virus was allowed to adsorb to cells for 2 h at 37°. Following viral adsorption, the medium was removed from the wells by aspiration. The cells were washed twice with 200 μL of assay medium to remove unabsorbed virus. The cells were then incubated with or without 100 μL of appropriate concentrations of test reagent in assay medium. After 8 days of incubation at 37°, the extent of viral replication was determined by an ELISA assay which detects the late structural protein p28 of HCMV.
Eight days after infection, the medium was aspirated from the wells. Non-specific binding sites were blocked by adding 200 μL of phosphate buffered saline containing 1% (w/v) bovine serum albumin (blocking buffer) to each well and incubating the plates for 30 min at room temperature. After removal of the blocking buffer by aspiration, the cells were fixed with 100 μL of cold ethanol-acetone solution (95:5) per well. The plates were placed at −20° for 30 min. The plates were washed 4 times with phosphate buffered saline containing 0.05% (v/v) polyoxyethylene sorbitan monolaurate (Tween 20®). Thereafter, 100 μL of mAb UL99 (Advanced Biotechnologies Inc., #13-130-100) recognizing HCMV protein p28 was added to each wells and plates were incubated for 2 h at room temperature. The plates were washed four times with 200 μL of the above-noted phosphate buffered saline/Tween-20® solution. The cells were then incubated with 100 μL of sheep anti-mouse IgGγ horseradish peroxidase conjugated for 2 h at room temperature. The plates were then washed four times with 200 μL of above-noted phosphate buffered saline/Tween-20®solution. Thereafter, 100 μL of ortho phenylenediamine dihydrochloride (OPD, Gibco Canada Inc.) solution was added to each well and the plates were agitated on a microplate shaker for 30 min in the dark. Color development was monitored at 450 nm using a microplate spectrophotometer.
The SAS program was used to calculate the % inhibition of viral replication and to generate EC50 values.
The EC50 values obtained according to this assay method for certain thiazolylphenyl derivatives of this invention are listed in the following tables under the heading ELISA CMV.

[2] = target: T1, HSV-1 helicase-primase (Human herpesvirus 1, UniProt P10189+P10236); assay: HSV-1 DNA-dependent ATPase assay (inhibition of HSV-1 helicase-primase); format: biochemical; settings: Group 1 Table 1
T1 construct: made in house; host or cells: Sf21 insect cells triply infected with recombinant baculoviruses
Text: A) HSV-1 DNA-Dependent ATP Assay (an in Vitro Assay Based on the Inhibition of HSV-1 Helicase-primase).
a) Preparation of enzyme: HSV-1 helicase-primase holoenzyme was produced in triply infected Sf21 cells using recombinant baculoviruses expressing the UL5, UL8 and UL52 helicase-primase subunits, as described by S. Dracheva et al., J. Biol. Chem. 1995, 270, 14148. The crude enzyme was purified by ammonium sulfate precipitation, Source 15Q® chromatography and Sephacryl® S-300 HR gel filtration (both purification systems can be obtained from Pharmacia Biotech Inc., Montreal, Quebec, Canada), see S. Dracheva et al., supra.
b) Assay: The DNA-dependent ATPase assay, described by J. J. Crute et al., Nucleic Acids Res. 1988, 16, 6585, was modified and used to evaluate the capability of the compounds of Group 1-formula 1 to inhibit HSV-1 helicase-primase activity. The reaction mixtures (80 μL each) contained 40 mM 4-(2-hydroxyethyl)-1-piperazineethanesulfonic acid (HEPES, pH 7.5), 10% (v/v) glycerol, 5.5 mM MgCl2, 1 mM DL-dithiothreitol (DTT), 50 μg/mL acetylated bovine serum albumin, 3.3% (v/v) DMSO, 4 mM ATP, 25 μM single-stranded M13 DNA hybridized to double-tailed 68-mer oligonucleotide and 3 μg/mL HSV-1 helicase-primase. After incubation for 20 min at 34°, formation of inorganic phosphate from hydrolysis of ATP was monitored spectrophotometrically at 650 nm using acidic ammonium molybdate/malachite green reagent, P. A. Lanzetta et al., Anal. Biochem. 1979, 100, 95. DNA-dependent ATPase activity was calculated from the net absorbance change in the presence and absence of inhibition.

[3] = system: HCMV (strain AD169); assay: Inhibition of HCMV replication, plaque reduction assay (PRA, Hs-68 cells); format: cell-based, human cytomegalovirus; settings: Group 1 Table 1, read-out: PRA CMV EC50
Experimental: as §1, §2
as §3, with “( ATCC” for “(ATCC”, “12-well” for “96 well microtiter”, “83,000” for “10,000”, “1 mL” for “100 μL”
The medium was removed from the cells by aspiration. The cells were then infected with approximately 50 PFU of HCMV (strain AD169, ATCC VR-538) in DMEM medium supplemented with 5% inactivated FBS (assay medium). The virus was allowed to adsorb to cells for 2 h at 37°. Following viral adsorption, the medium was removed from the wells by aspiration. The cells were then incubated with or without 1 mL of appropriate concentrations of test reagent in assay medium. After 4 days of incubation at 37°, the medium was exchanged with fresh medium containing test compound and 4 days later the cells were fixed with 1% aqueous formaldehyde and stained with a 2% crystal violet solution in 20% ethanol in water. Microscopic plaques were counted using a stereomicroscope. Drug effects were calculated as a percent reduction in the number of plaques in the presence of each drug concentration compared to the number observed in the absence of drug. Ganciclovir was used as a positive control in all experiments.
The EC50 values obtained according to this assay for certain thiazolyl derivatives of this invention are listed in the following tables under the heading PRA CMV.

[4] = Human betaherpesvirus 5, AD169, Hs68

T1 sequence (P10189 whole entry): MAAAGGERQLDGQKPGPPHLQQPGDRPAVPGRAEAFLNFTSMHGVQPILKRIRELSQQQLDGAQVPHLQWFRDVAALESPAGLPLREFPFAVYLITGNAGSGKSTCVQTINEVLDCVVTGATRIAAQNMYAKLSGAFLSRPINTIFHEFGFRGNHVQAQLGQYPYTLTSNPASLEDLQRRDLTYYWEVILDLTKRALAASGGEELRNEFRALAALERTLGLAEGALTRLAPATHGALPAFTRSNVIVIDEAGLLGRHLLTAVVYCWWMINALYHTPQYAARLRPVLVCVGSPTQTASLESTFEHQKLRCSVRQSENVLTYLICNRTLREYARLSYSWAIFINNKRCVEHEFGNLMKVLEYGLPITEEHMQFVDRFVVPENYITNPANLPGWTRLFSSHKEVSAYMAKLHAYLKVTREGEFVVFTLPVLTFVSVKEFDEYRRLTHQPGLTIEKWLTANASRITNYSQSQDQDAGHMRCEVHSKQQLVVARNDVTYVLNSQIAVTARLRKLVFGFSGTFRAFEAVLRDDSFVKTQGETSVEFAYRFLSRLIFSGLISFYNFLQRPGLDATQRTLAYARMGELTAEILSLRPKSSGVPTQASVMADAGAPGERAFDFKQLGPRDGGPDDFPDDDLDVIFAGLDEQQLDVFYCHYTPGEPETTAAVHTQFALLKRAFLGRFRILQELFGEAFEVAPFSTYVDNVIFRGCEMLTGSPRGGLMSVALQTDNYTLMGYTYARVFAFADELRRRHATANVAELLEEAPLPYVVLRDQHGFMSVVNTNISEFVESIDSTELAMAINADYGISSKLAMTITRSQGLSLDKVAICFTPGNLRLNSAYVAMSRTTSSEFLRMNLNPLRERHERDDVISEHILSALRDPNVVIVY
T1 sequence (P10192 whole entry, further chain): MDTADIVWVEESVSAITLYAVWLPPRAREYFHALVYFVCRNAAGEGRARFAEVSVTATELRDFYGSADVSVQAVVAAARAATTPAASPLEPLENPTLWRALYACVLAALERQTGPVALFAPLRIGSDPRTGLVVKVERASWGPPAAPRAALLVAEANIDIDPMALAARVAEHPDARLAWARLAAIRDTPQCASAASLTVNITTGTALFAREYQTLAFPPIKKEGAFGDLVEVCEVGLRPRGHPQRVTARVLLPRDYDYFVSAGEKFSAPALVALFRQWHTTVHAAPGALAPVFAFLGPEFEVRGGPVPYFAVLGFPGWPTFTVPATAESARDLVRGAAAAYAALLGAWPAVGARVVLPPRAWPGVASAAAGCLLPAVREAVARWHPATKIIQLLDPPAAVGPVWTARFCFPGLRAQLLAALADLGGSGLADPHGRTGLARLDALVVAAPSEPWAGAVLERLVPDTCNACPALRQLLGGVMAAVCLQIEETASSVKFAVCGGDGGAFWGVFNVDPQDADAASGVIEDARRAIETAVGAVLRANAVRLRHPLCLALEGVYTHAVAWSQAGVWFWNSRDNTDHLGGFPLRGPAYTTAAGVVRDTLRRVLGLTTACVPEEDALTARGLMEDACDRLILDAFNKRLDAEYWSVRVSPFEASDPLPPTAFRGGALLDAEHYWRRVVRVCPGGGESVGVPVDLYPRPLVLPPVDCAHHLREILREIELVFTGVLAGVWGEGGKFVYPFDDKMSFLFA
T1 sequence (P10236 whole entry): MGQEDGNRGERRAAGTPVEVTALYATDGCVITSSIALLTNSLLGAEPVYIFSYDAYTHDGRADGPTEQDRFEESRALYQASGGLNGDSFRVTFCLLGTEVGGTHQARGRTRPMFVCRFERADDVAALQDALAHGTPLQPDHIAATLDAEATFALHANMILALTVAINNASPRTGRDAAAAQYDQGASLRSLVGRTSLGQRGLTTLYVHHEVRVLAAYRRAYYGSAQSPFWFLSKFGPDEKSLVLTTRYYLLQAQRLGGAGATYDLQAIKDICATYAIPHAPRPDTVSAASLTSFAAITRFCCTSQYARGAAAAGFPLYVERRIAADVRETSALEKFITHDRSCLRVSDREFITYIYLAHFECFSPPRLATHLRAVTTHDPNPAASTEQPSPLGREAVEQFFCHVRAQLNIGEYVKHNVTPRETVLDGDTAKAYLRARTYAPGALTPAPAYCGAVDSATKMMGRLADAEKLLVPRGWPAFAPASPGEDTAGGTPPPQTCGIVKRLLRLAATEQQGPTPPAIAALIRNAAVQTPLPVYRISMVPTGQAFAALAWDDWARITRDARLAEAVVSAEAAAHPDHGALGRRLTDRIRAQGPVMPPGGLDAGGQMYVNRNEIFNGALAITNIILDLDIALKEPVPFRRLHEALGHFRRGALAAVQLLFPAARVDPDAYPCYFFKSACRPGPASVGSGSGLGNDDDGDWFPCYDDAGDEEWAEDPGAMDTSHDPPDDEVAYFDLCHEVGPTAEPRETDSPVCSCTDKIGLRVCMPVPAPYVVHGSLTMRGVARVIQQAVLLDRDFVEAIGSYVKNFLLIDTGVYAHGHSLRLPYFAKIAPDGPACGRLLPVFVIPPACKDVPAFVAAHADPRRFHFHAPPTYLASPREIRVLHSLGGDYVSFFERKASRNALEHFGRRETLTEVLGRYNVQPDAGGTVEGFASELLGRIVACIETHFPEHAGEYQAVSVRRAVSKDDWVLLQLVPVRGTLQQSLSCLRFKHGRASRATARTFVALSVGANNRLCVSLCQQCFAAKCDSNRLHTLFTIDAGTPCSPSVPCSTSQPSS

SMILES | EC50 [1] [µM] | IC50 [2] [µM] | EC50 [3, 4] [µM] | other results
Nc1nc(-c2ccc(NC(=O)CNCc3ccccc3)cc2)cs1 [Example 2, N-{4-(2-Amino-4-thiazolyl)phenyl}-2-{(phenylmethyl)-amino}acetamide] |  |  |  | melting point: 162 to 163 °C
NC(=O)N(Cc1ccc(F)cc1)c1ccc(-c2csc(N)n2)cc1 [Example 2, N-{4-(2-Amino-4-thiazolyl)phenyl}-N-{(4-fluorophenyl)methyl}urea] |  |  |  | melting point: 227 to 230 °C
Nc1nc(-c2ccc(NC(=O)CNCC3CCCCC3)cc2)cs1 [Example 3, N-{4-(2-Amino-4-thiazolyl)phenyl}-2-{(cyclohexyl-methyl)amino}acetamide] |  |  |  | melting point: 164 to 166 °C
Nc1nc(-c2ccc(NC(=O)CN(Cc3ccccc3)C(=O)C3CCCCC3)cc2)cs1 [Example 4, N-{2-{{4-(2-Amino-4-thiazolyl)phenyl)amino}-2-oxoethyl}-N-(phenylmethyl)cyclohexanecarboxamide] |  |  |  | melting point: 214.5 to 215.5 °C
CCCCN(CCCC)C(=O)C(=O)Nc1ccc(-c2csc(N)n2)cc1 [Example 4, N-{4-(2-Amino-4-thiazolyl)phenyl}-N′,N′-dibutylethanediamide] |  |  |  | melting point: 178 to 179 °C
Nc1nc(-c2ccc(NC(=O)CN(Cc3ccc(Cl)cc3)C(=O)c3ccncc3)cc2)cs1 [Example 55] | 11.9 | 0.57 |  | 
Nc1nc(-c2ccc(NC(=O)CN(CC3CCCCC3)C(=O)c3ccncc3)cc2)cs1 [Example 57] | 2.6 | 3.9 | 15.8 | 
CC(C)(C)OC(=O)N1CCC(C(=O)N(CC(=O)Nc2ccc(-c3csc(N)n3)cc2)CC2CCCCC2)CC1 [Example 61] |  | 4.4 |  | 
Nc1nc(-c2ccc(NC(=O)CN(CC3CCCCC3)C(=O)C3CCNCC3)cc2)cs1 [Example 62] |  |  |  | inhibition of HSV-1 helicase-primase ([2]; at 50 μM): 29% inhi- bition at 50 μM
Nc1nc(-c2ccc(NC(=O)CN(CCc3ccccc3)C(=O)C3CCCCC3)cc2)cs1 [Example 68] | > 5 | 0.18 |  | 
Nc1nc(-c2ccc(NC(=O)CN(Cc3ccc(Cl)cc3)C(=O)CC3CCCCC3)cc2)cs1 [Example 69] |  | 0.43 | 8 | 
Nc1nc(-c2ccc(NC(=O)CN(CC3CCCCC3)C(=O)CC3CCCC3)cc2)cs1 [Example 75] | 48 | 0.21 |  | 
[N-]=[N+]=Nc1ccc(C(=O)N(CC(=O)Nc2ccc(-c3csc(N)n3)cc2)Cc2ccncc2)cc1 [Example 78] |  | 1 |  | 
CC(C)CN(CC(=O)Nc1ccc(-c2csc(N)n2)cc1)C(=O)C1CCCCC1 [Example 81] | 14 | 0.48 |  | 
Nc1nc(-c2ccc(NC(=O)CN(Cc3ccc(F)cc3)C(=O)C3CCCCC3)cc2)cs1 [Example 83] | 8.1 | 0.042 |  | 
CC(C)COC(=O)N(CC(=O)Nc1ccc(-c2csc(N)n2)cc1)Cc1ccccc1 [Example 86] | 3.8 | 0.17 | 24 | 
CC(C)(C)NC(=O)N(CC(=O)Nc1ccc(-c2csc(N)n2)cc1)Cc1ccccc1 [Example 92] | 0.9 | 0.076 | 65 | 

SMILES | EC50 [1] [µM] | IC50 [2] [µM] | EC50 [3, 4] [µM] | other results
CN(C(=O)N(CC(=O)Nc1ccc(-c2csc(N)n2)cc1)Cc1ccccc1)C(C)(C)C [Example 94] | > 8 | 0.026 | > 24 | 
Nc1nc(-c2ccc(NC(=O)CN(Cc3ccccc3)C(=O)N3CCOCC3)cc2)cs1 [Example 95] | 57 | 0.14 | 90 | 
Nc1nc(-c2ccc(NC(=O)CN(Cc3ccccc3)S(=O)(=O)N3CCOCC3)cc2)cs1 [Example 96] | 0.35 | 0.29 | 12 | 
CC(C)(C)OC(=O)N(CC(=O)Nc1ccc(-c2csc(N)n2)cc1)CC1CCCCC1 [Example 100] | 14 | 0.76 |  | 
Cc1ccccc1CN(CC(=O)Nc1ccc(-c2csc(N)n2)cc1)C(=O)c1ccncc1 [Example 102] | 11 | 0.19 | 18 | 
C[C@@H](c1ccccc1)N(CC(=O)Nc1ccc(-c2csc(N)n2)cc1)C(=O)NC(C)(C)C [Example 105] | 11 | 0.7 |  | 
C[C@@H](C1CCCCC1)N(CC(=O)Nc1ccc(-c2csc(N)n2)cc1)C(=O)OC(C)(C)C [Example 108] |  | 0.46 |  | 
CC(C)CN(CC(=O)Nc1ccc(-c2csc(N)n2)cc1)C(=O)OC(C)(C)C [Example 112] |  | 1.8 |  | 
Nc1nc(-c2ccc(NC(=O)CN(Cc3ccccc3)C(=O)Cc3ccncc3)cc2)cs1 [Example 114] |  | 0.8 | 23 | 
Nc1nc(-c2ccc(NC(=O)CN(Cc3ccccc3F)C(=O)c3ccncc3)cc2)cs1 [Example 118] |  | 0.047 | 60 | 
Cc1cccc(C)c1OCC(=O)N(CC(=O)Nc1ccc(-c2csc(N)n2)cc1)Cc1ccccc1 [Example 121] |  | 0.49 |  | EC50 [3]: > 31 µM
Cc1cc(C)nc(SCC(=O)N(CC(=O)Nc2ccc(-c3csc(N)n3)cc2)Cc2ccccc2)n1 [Example 122] |  |  |  | EC50 [3]: 3.3 µM
CC(c1ccccc1)N(CC(=O)Nc1ccc(-c2csc(N)n2)cc1)C(=O)c1cccnc1 (stereo not shown) [Example 134] |  | 0.26 |  | EC50 [3]: 18 µM
C[C@@H](c1ccccc1)N(CC(=O)Nc1ccc(-c2csc(N)n2)cc1)C(=O)Cc1ccccn1 [Example 135] |  | 0.78 | 38 | 
CC(c1ccccc1)N(CC(=O)Nc1ccc(-c2csc(N)n2)cc1)C(=O)Cc1ccccn1 (stereo not shown) [Example 136] |  | 4.2 |  | EC50 [3]: 31 µM
CC(c1ccccc1)N(CC(=O)Nc1ccc(-c2csc(N)n2)cc1)C(=O)c1ccncc1 (stereo not shown) [Example 137] |  | 0.98 |  | EC50 [3]: 49 µM
CN1CCC(C(=O)N(CC(=O)Nc2ccc(-c3csc(N)n3)cc2)CC2CCCCC2)CC1 [Example 138] | 31.6 | > 50 |  | 
